What was measured:
johnsongrass [1] = assay: Test C postemergence; assay type: in vivo, Sorghum halepense; details: for Plant response rating (scale of 0 to 100 where 0 is no effect and 100 is complete control), Johnsongrass: Postemergence, 31 g ai/ha, visually evaluated after 13 to 15 days; for Johnsongrass plant response rating / Plant response rating, Johnsongrass: postemergence; for Johnsongrass plant response rating: 62 g ai/ha, scale 0 to 100
Summary of the method: (§1)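 Visual control ratings on a 0–100 scale (100 = complete control) made against untreated controls after 13 to 15 days in greenhouse. Compounds applied in surfactant-containing solvent mixture, either preemergence to loam/sand-sown seeds or postemergence to 1- to 4-leaf plants (2–18 cm) in peat medium.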

oilseed rape = assay: Test C postemergence; assay type: in vivo, Brassica napus; details: for Oilseed Rape plant response rating / Plant response rating, Oilseed Rape: postemergence; for Oilseed Rape plant response rating: 62 g ai/ha, scale 0 to 100
Summary of the method: as §1

waterhemp = assay: Test C postemergence; assay type: in vivo, Amaranthus rudis; details: for Waterhemp plant response rating / Plant response rating, Waterhemp: postemergence; for Waterhemp plant response rating: scale 0 to 100
Summary of the method: as §1

foxtail, giant = assay: Test A preemergence; assay type: in vivo, Setaria faberii; details: preemergence
Summary of the method: (§2)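 Scoring was visual, on a scale where 100 means complete control and 0 means no effect, comparing treated with untreated plants around 10 days post-application. Compounds in surfactant-containing non-phytotoxic solvent were sprayed onto soil preemergence or onto one- to two-leaf seedlings (2–10 cm) postemergence.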

pigweed [2] = assay: Test C preemergence; assay type: in vivo, Amaranthus retroflexus; details: preemergence; for Plant response rating, Pigweed: 125 g ai/ha, scale 0 to 100, 0 = no effect, 100 = complete control
Summary of the method: as §1

barnyardgrass = assay: Test B flood; assay type: in vivo, Echinochloa crus-galli; details: 250 g ai/ha, visual rating on 0 to 100 scale (0 no effect, 100 complete control), 13 to 15 days
Summary of the method: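 2-leaf plants; pots flooded 3 cm over soil; compound added to paddy water, depth kept constant. Greenhouse 13–15 d. Visual rating vs controls, 0–100 scale (100 = complete control); dash = no result.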

lambsquarters = assay: Test C preemergence; assay type: in vivo, Chenopodium album; details: preemergence; for Plant response rating, Lambsquarters: 125 g ai/ha, scale 0 to 100, 0 = no effect, 100 = complete control
Summary of the method: as §1

pigweed [3] = assay: Test A preemergence; assay type: in vivo, Amaranthus retroflexus; details: preemergence
Summary of the method: as §2

blackgrass [4] = assay: Test C preemergence; assay type: in vivo, Alopecurus myosuroides; details: preemergence; for Plant response rating, Blackgrass: 125 g ai/ha, scale 0 to 100, 0 = no effect, 100 = complete control
Summary of the method: as §1

blackgrass [5] = assay: Test C postemergence; assay type: in vivo, Alopecurus myosuroides; details: for Plant response rating (scale of 0 to 100 where 0 is no effect and 100 is complete control), Blackgrass: Postemergence, 31 g ai/ha, visually evaluated after 13 to 15 days; for Blackgrass plant response rating / Plant response rating, Blackgrass: postemergence; for Blackgrass plant response rating: 62 g ai/ha, scale 0 to 100
Summary of the method: as §1

crabgrass, large = assay: Test C postemergence; assay type: in vivo, Digitaria sanguinalis; details: for Plant response rating (scale of 0 to 100 where 0 is no effect and 100 is complete control), Crabgrass, Large: Postemergence, 31 g ai/ha, visually evaluated after 13 to 15 days; for Crabgrass, Large plant response rating / Plant response rating, Crabgrass, Large: postemergence; for Crabgrass, Large plant response rating: 62 g ai/ha, scale 0 to 100
Summary of the method: as §1

johnsongrass [6] = assay: Test C preemergence; assay type: in vivo, Sorghum halepense; details: preemergence; for Plant response rating, Johnsongrass: 125 g ai/ha, scale 0 to 100, 0 = no effect, 100 = complete control
Summary of the method: as §1

[7] = 250 g ai/ha, scale 0 to 100 (0 no effect, 100 complete control)
[8] = 125 g ai/ha, scale 0 to 100, 0 no effect, 100 complete control
[9] = Postemergence, 31 g ai/ha, visually evaluated after 13 to 15 days
[10] = 125 g ai/ha, visual injury, 0 to 100 scale, approx. 10 days
[11] = 500 g ai/ha, visual injury after approx. 10 days, 0 to 100 scale (0 no effect, 100 complete control)
[12] = 31 g ai/ha, visual rating, scale 0 to 100 (0 no effect, 100 complete control), 13 to 15 days
[13] = 62 g ai/ha, scale 0 to 100 (0 no effect, 100 complete control), 13 to 15 days
[14] = 250 g ai/ha, scale 0 to 100, 0 is no effect, 100 is complete control
[15] = 125 g ai/ha, visual injury approx. 10 days after treatment

## CCCNC(=O)c1cc(OCC)n(Cc2ccnc(OC(F)F)c2)n1 [Compound 136]
Johnsongrass [1]
  Plant response rating (scale of 0 to 100 where 0 is no effect and 100 is complete control), Johnsongrass: 5
  Johnsongrass plant response rating: 5
Johnsongrass [1]; [7]
  Plant response rating, Johnsongrass: 10
Johnsongrass [1]; [8]
  Plant response rating, Johnsongrass: 5
Oilseed rape; [9]
  Plant response rating (scale of 0 to 100 where 0 is no effect and 100 is complete control), Oilseed Rape: 60
Oilseed rape
  Oilseed Rape plant response rating: 60
Oilseed rape; [7]
  Plant response rating, Oilseed Rape: 85
Oilseed rape; [8]
  Plant response rating, Oilseed Rape: 70
waterhemp; [9]
  Plant response rating (scale of 0 to 100 where 0 is no effect and 100 is complete control), Waterhemp: 60
waterhemp; 62 g ai/ha
  Waterhemp plant response rating: 70
waterhemp; [7]
  Plant response rating, Waterhemp: 90
waterhemp; [8]
  Plant response rating, Waterhemp: 75
foxtail, giant; [10]
  Foxtail, Giant plant response rating: 100
foxtail, giant; [11]
  Foxtail, Giant plant response rating: 100
Pigweed [2]; [12]
  Pigweed plant response rating: 70
Pigweed [2]; [13]
  Pigweed plant response rating: 70
Pigweed [2]; 13 to 15 days
  Plant response rating, Pigweed: 60
Pigweed [2]; [14]
  Pigweed plant response rating: 100
barnyardgrass
  Plant response rating, Barnyardgrass: 50
lambsquarters; [12]
  Lambsquarters plant response rating: 98
lambsquarters; [13]
  Lambsquarters plant response rating: 98
lambsquarters; 13 to 15 days
  Plant response rating, Lambsquarters: 98
lambsquarters; [14]
  Lambsquarters plant response rating: 100
Pigweed [3]; [10]
  Pigweed plant response rating: 100
Pigweed [3]; [11]
  Pigweed plant response rating: 100
Blackgrass [4]; [12]
  Blackgrass plant response rating: 85
Blackgrass [4]; [13]
  Blackgrass plant response rating: 90
Blackgrass [4]; 13 to 15 days
  Plant response rating, Blackgrass: 90
Blackgrass [4]; [14]
  Blackgrass plant response rating: 90
Blackgrass [5]
  Plant response rating (scale of 0 to 100 where 0 is no effect and 100 is complete control), Blackgrass: 5
  Blackgrass plant response rating: 10
Blackgrass [5]; [7]
  Plant response rating, Blackgrass: 40
Blackgrass [5]; [8]
  Plant response rating, Blackgrass: 15
crabgrass, large
  Plant response rating (scale of 0 to 100 where 0 is no effect and 100 is complete control), Crabgrass, Large: 5
  Crabgrass, Large plant response rating: 5
crabgrass, large; [7]
  Plant response rating, Crabgrass, Large: 40
crabgrass, large; [8]
  Plant response rating, Crabgrass, Large: 40
Johnsongrass [6]; [12]
  Johnsongrass plant response rating: 60
Johnsongrass [6]; [13]
  Johnsongrass plant response rating: 85
Johnsongrass [6]; 13 to 15 days
  Plant response rating, Johnsongrass: 98
Johnsongrass [6]; [14]
  Johnsongrass plant response rating: 100

## CCCc1cc(C(=O)NC2CC2)nn1Cc1ccnc(OC(F)F)c1 [Compound 205]
Johnsongrass [1]
  Plant response rating (scale of 0 to 100 where 0 is no effect and 100 is complete control), Johnsongrass: 5
  Johnsongrass plant response rating: 10
Johnsongrass [1]; [7]
  Plant response rating, Johnsongrass: 45
Johnsongrass [1]; [8]
  Plant response rating, Johnsongrass: 20
Oilseed rape
  Oilseed Rape plant response rating: 25
Oilseed rape; [7]
  Plant response rating, Oilseed Rape: 50
Oilseed rape; [8]
  Plant response rating, Oilseed Rape: 50
waterhemp; [7]
  Plant response rating, Waterhemp: 85
waterhemp
  Waterhemp plant response rating: 70
foxtail, giant; [15]
  Foxtail, Giant plant response rating (0 to 100 scale): 100
foxtail, giant; [11]
  Foxtail, Giant plant response rating: 100
Pigweed [2]; [12]
  Pigweed plant response rating: 95
Pigweed [2]; [13]
  Pigweed plant response rating: 100
Pigweed [2]; 13 to 15 days
  Plant response rating, Pigweed: 100
Pigweed [2]; [14]
  Pigweed plant response rating: 100
barnyardgrass
  Plant response rating, Barnyardgrass: 50
lambsquarters; [12]
  Lambsquarters plant response rating: 85
lambsquarters; [13]
  Lambsquarters plant response rating: 95
lambsquarters; 13 to 15 days
  Plant response rating, Lambsquarters: 100
lambsquarters; [14]
  Lambsquarters plant response rating: 100
Pigweed [3]; [15]
  Pigweed plant response rating (0 to 100 scale): 100
Blackgrass [4]; [12]
  Blackgrass plant response rating: 80
Blackgrass [4]; [13]
  Blackgrass plant response rating: 95
Blackgrass [4]; 13 to 15 days
  Plant response rating, Blackgrass: 95
Blackgrass [4]; [14]
  Blackgrass plant response rating: 100
Blackgrass [5]
  Plant response rating (scale of 0 to 100 where 0 is no effect and 100 is complete control), Blackgrass: 5
  Blackgrass plant response rating: 5
Blackgrass [5]; [7]
  Plant response rating, Blackgrass: 30
Blackgrass [5]; [8]
  Plant response rating, Blackgrass: 5
crabgrass, large
  Plant response rating (scale of 0 to 100 where 0 is no effect and 100 is complete control), Crabgrass, Large: 5
  Crabgrass, Large plant response rating: 10
crabgrass, large; [7]
  Plant response rating, Crabgrass, Large: 65
crabgrass, large; [8]
  Plant response rating, Crabgrass, Large: 45
Johnsongrass [6]; [12]
  Johnsongrass plant response rating: 70
Johnsongrass [6]; [13]
  Johnsongrass plant response rating: 80
Johnsongrass [6]; 13 to 15 days
  Plant response rating, Johnsongrass: 90
Johnsongrass [6]; [14]
  Johnsongrass plant response rating: 100

— patent publication US20150105252A1, “SUBSTITUTED PYRAZOLES AS HERBICIDES” (E I DU PONT DE NEMOURS AND COMPANY, priority 2013, published 2015)
